Assays:
[1] = Ligand protonation constants by pH-potentiometric titration; type: physicochemical; conditions: T = 25 °C, I = 0.15 M NaCl
Procedure: The protonation constants of H2OPC2A have been determined by pH-potentiometry in 0.15 M NaCl ionic medium, and the constants determined are listed in Table 2, along with the corresponding values determined for structurally similar ligands used as comparative benchmarks (H23,9-PC2A, H23,6-PC2A, H21,4-DO2A, H21,7-DO2A, and H21,7-O2DO2A).
Metal stock solutions were prepared from the highest analytical grade chemicals, and their concentrations were determined by complexometric titration with standardized Na2H2EDTA and eriochrome black T indicator in the presence of ascorbic acid, and potassium hydrogen tartrate for MnCl2, murexide indicator for CaCl2 and CuCl2, eriochrome black T for MgCl2 and xylenol orange in the presence of hexamethylenetetramine for the solution of ZnCl2. The concentration of the ligand stock solution was determined by pH-potentiometric titrations. The protonation constants of the ligand were determined by the pH potentiometric titrations with 0.15 M NaOH, using 0.0025 M ligand solutions. The ionic strength was set to 0.15 M by using NaCl. […]
To avoid the effect of CO2, N2 gas was bubbled through the solutions during the titrations process. […] For the calibration of the pH meter, KH-phtalate (pH = 4.005) and borax (pH = 9.177) buffers were used, and the H^+ ion concentrations were calculated from the measured pH values by applying the method proposed by Irving et al.. […]

[2] = 1H relaxometry: r1p and r2p relaxivity of Mn(II) complexes; type: physicochemical; conditions: for r1p / r2p: Mn(II) complex, pH = 7.4
Procedure: The relaxivity of Mn(II) complexes is one of the most important parameters that directly correlates with its MRI efficacy. Relaxivity is defined as the longitudinal (r1p) and transverse (r2p) water proton relaxation rate enhancement, provided by 1.0 mM concentration of the paramagnetic species. The relaxivity (r1p and r2p) of the Mn(II) complexes were determined using relaxometers operating at 0.49 T and 1.41 T field strength, in a HEPES buffer (I = 0.15 M NaCl) at different temperatures from the slopes of plots 1/T1,2 vs. (Mn(II)) for 4 concentrations of Mn(II) (data shown in Supporting Information Figures S24 and S25), and they are compared in Table 4.
The ^1H longitudinal (T1) and transverse (T2) relaxation times were measured by using Bruker Minispec MQ-20 and MQ-60 NMR analyzers (Bruker corporation, Billerica, MA, USA). The temperature of the sample holder was set at 25.0 or 37 (±0.2) °C, and controlled with a circulating water bath thermostat. The T1 values of the samples were determined by means of the inversion recovery method (180°–τ–90°), averaging 4–6 data points obtained at 12 different τ delay times, while T2 data were collected by using the Carl–Purcell–Meiboom–Gill (CPMG) spin-echo pulse sequence. Relaxivities were determined by published procedures (from the slopes of the plots of 1/T1,2 vs. (Mn(II)) for 4 concentrations of Mn(II)), in samples of 0.3–0.4 mL volume (data shown in Figures S24 and S25, Supplementary Information). The pH were set by either using a 0.05 M 4-(2-hydroxyethyl)-1-piperazine-ethanesulfonic acid (HEPES) buffer (pH = 7.4) or monitored (pH profiles) using a Metrohm 827 pH lab pH meter and a Metrohm 6.0234.100 combined electrode, in the pH range of 1.75–11.8.

[3] = Serum stability in Seronorm followed by r1p relaxation rates; type: in vitro ADME, human
Procedure: Serum “stability” of the [Mn(3,9-OPC2A)] chelate: during MRI investigations, the CAs are injected into the vein of the patients and, following their injection, the complexes can meet with different proteins present in the blood serum, which are known to bind the essential metal ions in relatively strong manner. Therefore, the plasma proteins can potentially initiate transmetalation/transchelation reactions, especially in the case of Mn(II) complexes whose thermodynamic stability is lower than the stability of the chelates formed with essential metal ions, such as Zn(II) or Cu(II). What is more, for some Mn(II) complexes, depending upon the stability constants, of course, the Ca(II) ions present at high concentrations in the serum can initiate the dissociation of the complex, as in the case of [Mn(EGTA)]^2^−, [Mn(BAPTA)]^2^−, or [Mn(CaM)], for instance. In nuclear medicine, serum “stability” studies are routinely performed, in order to access the integrity of the chelates in the given competitive media.
The serum stability of the Mn(II) complexes was studied by following the r1p relaxation rates of the complex over time, using 1.0 mM solutions in SeronormTM (Seronorm = commercially available lyophilized human blood serum, Sero, Stasjonsveien, Norway) at pH = 7.43 and 25 °C.

Structure (SMILES) | log K3^H [1] | Σlog Κ2^H ([1]; log K1^H + log K2^H) | r1p ([2]; 0.49 T, 25 °C) | r2p ([2]; 0.49 T, 25 °C) | r1p ([2]; 0.49 T, 37 °C) | r2p ([2]; 0.49 T, 37 °C) | r1p ([2]; 1.41 T, 25 °C) | r2p ([2]; 1.41 T, 25 °C) | r1p ([2]; 1.41 T, 37 °C) | r2p ([2]; 1.41 T, 37 °C) | r1p in pure aqueous solution ([2]; 1.41 T, 25 °C) | r1p near pH = 1.8 ([2]; 1.41 T, 25 °C, complex protonated and dissociated at low pH) | time over which the relaxation rate remained constant in Seronorm ([3]; 1.0 mM complex, pH = 7.43, 25 °C, negligible dissociation) | r1p in Seronorm solution ([3]; 1.41 T, 25 °C)
O=C(O)CN1CCOCCN(CC(=O)O)Cc2cccc(n2)C1 [H23,9-OPC2A, 6-Oxa-3,9,15-triazabicyclo(9.3.1)pentadeca-1(15),11,13-triene-3,9-diacetic acid] | 2.13(1) | 15.39 | 3.13(2) mM^−1s^−1 | 5.15(3) mM^−1s^−1 | 2.54(1) mM^−1s^−1 | 4.17(4) mM^−1s^−1 | 2.72(2) mM^−1s^−1 | 9.90(5) mM^−1s^−1 | 2.06(1) mM^−1s^−1 | 7.37(3) mM^−1s^−1 | – | – | – | –
O=C([O-])CN1CCOCCN(CC(=O)[O-])Cc2cccc(n2)C1.[Mn+2] [[Mn(3,9-OPC2A)]] | – | – | – | – | – | – | – | – | – | – | 2.70 mM⁻¹ s⁻¹ | 6.51 mM^−1s^−1 | at least 80 h | 5.09 mM⁻¹ s⁻¹

Source: PMC8778187, “A New Oxygen Containing Pyclen-Type Ligand as a Manganese(II) Binder for MRI and ^52Mn PET Applications: Equilibrium, Kinetic, Relaxometric, Structural and Radiochemical Studies” (Molecules, 2022)
